SMILES strings stand for the structures.

The target in the first assay is T1, PTP1B (human, recombinant) (Homo sapiens, UniProt P18031).
T1 construct: purchased ATGen Co., Ltd. (Gyeonggi-do, Korea)
T1 sequence (P18031 1-435): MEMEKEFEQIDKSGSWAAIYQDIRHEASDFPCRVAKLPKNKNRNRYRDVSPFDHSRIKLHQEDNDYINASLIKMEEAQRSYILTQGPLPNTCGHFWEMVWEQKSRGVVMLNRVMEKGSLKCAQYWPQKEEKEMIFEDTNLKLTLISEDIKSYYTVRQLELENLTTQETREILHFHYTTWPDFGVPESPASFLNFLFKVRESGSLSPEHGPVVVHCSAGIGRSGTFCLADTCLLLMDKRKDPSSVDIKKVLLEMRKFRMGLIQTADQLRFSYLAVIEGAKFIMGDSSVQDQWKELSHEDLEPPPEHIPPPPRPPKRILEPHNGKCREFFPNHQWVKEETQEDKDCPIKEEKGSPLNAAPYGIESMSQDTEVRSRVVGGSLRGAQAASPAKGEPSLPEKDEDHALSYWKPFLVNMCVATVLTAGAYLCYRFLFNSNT
Briefly: Enzyme kinetic study of PTP1B inhibition (Lineweaver-Burk plots). The assay is classed as biochemical. The conditions noted are these: Lineweaver-Burk plots: reduction in Vmax, no change in Km. The protocol: To elucidate the characteristics of PTP1B inhibition by the prenylated xanthones and flavonoids, compounds 1 and 13 were selected for an enzyme kinetic study. The kinetic studies were conducted using different concentrations of compounds 1, 13, and p-NPP. The initial rate was determined on the basis of the rate of increase in absorbance at 405 nm. The Michaelis–Menten constant (Km) and maximal velocity (Vmax) of PTP1B were determined by Lineweaver–Burk Plot analysis for competitive inhibition and the intercept on the vertical axis for noncompetitive inhibition. […]
Figure 2 Lineweaver-Burk plots for inhibition of PTP1B-catalyzed hydrolysis of p-NPP by compounds 1 (A) and 13 (B). Data are expressed as mean initial velocity for triplicate experiments (n = 3) at each substrate concentration.
PTP1B (human, recombinant) was purchased from ATGen Co., Ltd. (Gyeonggi-do, Korea). The enzyme activity was measured in a reaction mixture containing 1 mM p-NPP in 50 mM Bis-Tris (pH 6.0), 2.0 mM EDTA, and 5.0 mM dithiothreitol (DTT). […] The amount of p-NP produced was estimated by measuring the increase in absorbance at 405 nm. The non-enzymatic hydrolysis of 1.0 mM p-NPP was corrected by measuring the increase in absorbance at 405 nm obtained in the absence of PTP1B enzyme. […]
Take `C=CC(C)(C)c1c2c(c3oc4cc(O)c(O)cc4c(=O)c3c1O)C=CC(C)(C)O2` [Compound 1, cudratricusxanthone N]: the “Mode of PTP1B inhibition” value was “noncompetitive”.
With `CC(C)=CCc1cc([C@@H]2CC(=O)c3c(cc(O)c(CC=C(C)C)c3O)O2)c(O)cc1O` [Compound 13, cudraflavanone D], the “Mode of PTP1B inhibition” value is “noncompetitive”.

A further assay deals with T1, PTP1B (human, recombinant). Put plainly: PTP1B inhibitory activity assay (p-NPP hydrolysis). The format is biochemical. To be noted: 1 mM p-NPP substrate, pH 6.0, 37.5 °C, 30 min; mean ± SD of triplicate experiments; read-out: PTP1B Inhibitory Effects (IC50 Values). The protocol:
On the basis of these findings, we evaluated the inhibitory effects of the 16 isolated compounds on PTP1B activity. PTP1B enzyme (human, recombinant) was purchased from ATGen Co., Ltd. (Gyeonggi-do, Korea), and its activity was measured using p-nitrophenyl phosphate (p-NPP). The reaction mixture consisted of 50 mM Bis-Tris (pH 6.0), 2.0 mM EDTA, 5.0 mM dithiothreitol (DTT), PTP1B (0.04 μg), and 1.0 mM p-NPP, with or without test compounds. After incubation at 37.5 °C for 30 min, the reaction was stopped via the addition of 10 N NaOH. The production of p-nitrophenol (p-NP) was evaluated by measuring the absorbance at 405 nm. The non-enzymatic hydrolysis of 1.0 mM p-NPP was corrected by measuring the increase in absorbance at 405 nm in the absence of PTP1B enzyme.
PTP1B (human, recombinant) was purchased from ATGen Co., Ltd. (Gyeonggi-do, Korea). The enzyme activity was measured in a reaction mixture containing 1 mM p-NPP in 50 mM Bis-Tris (pH 6.0), 2.0 mM EDTA, and 5.0 mM dithiothreitol (DTT). The reaction mixture was placed in a 37.5 °C for 30 min, followed by termination of the reaction with the addition of 10 N NaOH. The amount of p-NP produced was estimated by measuring the increase in absorbance at 405 nm. The non-enzymatic hydrolysis of 1.0 mM p-NPP was corrected by measuring the increase in absorbance at 405 nm obtained in the absence of PTP1B enzyme. Inhibition kinetics studies were performed in the presence or absence of compounds 1 and 13 with different concentrations of p-NPP. Data were fitted by nonlinear regression analysis according to a Michaelis-Menten kinetic model using GraphPad Prism 5.01.
Turning to `CC(C)=CCc1c(O)c(O)cc2c(=O)c3c(O)c4c(cc3oc12)OC(C)C4(C)C` (stereo not drawn) [Compound 9, cudraxanthone M], the IC50 was found to be 3.5 ± 0.7 µM.
As to `C=CC(C)(C)c1c2c(c3oc4cc(O)c(O)cc4c(=O)c3c1O)C=CC(C)(C)O2` [Compound 1, cudratricusxanthone N], the half-inhibitory concentration (IC50) was 2 ± 0.4 µM.
`CC(C)=CCc1c(O)cc2c(c1O)C(=O)C[C@@H](c1cc3c(cc1O)OC(C)(C)C=C3)O2` [Compound 14, euchrestaflavanone C]: the IC50 worked out at 12.3 ± 2.2 µM.
For the compound `CC(C)=CCc1c2c(c(O)c3c(=O)c4cc(O)c(O)cc4oc13)C(C)(C)C(C)O2` (stereo not drawn) [Compound 8], the half-inhibitory concentration (IC50) was determined as 2.8 ± 0.6 µM.
Regarding `C=CC(C)(C)c1c(O)cc(O)c2c(=O)c3c(CC=C(C)C)c(O)c(O)cc3oc12` [Compound 4, cudratricusxanthone A], the half-maximal inhibitory concentration (IC50) turned out to be 4.3 ± 0.6 µM.
Consider `CC(C)=CCc1c(-c2ccc(O)cc2O)oc2c(CC=C(C)C)c(O)cc(O)c2c1=O` [Compound 16, kuwanon C], for which the IC50 was 13.6 ± 3.3 µM.
As to `C=CC(C)(C)c1c(OC)c(CC=C(C)C)c2oc3cc(O)c(O)cc3c(=O)c2c1O` [Compound 7, cudracuspixanthone A], the IC50 turned out to be 1.9 ± 0.4 µM.
On to `C=CC(C)(C)c1c(O)cc2oc3c(CC=C(C)C)c(O)c(O)cc3c(=O)c2c1O` [Compound 5, cudraxanthone L], for which the half-maximal inhibitory concentration (IC50) stood at 4.6 ± 0.8 µM.
For `C=CC(C)(C)c1c(O)cc(O)c2c(=O)c3cc(O)c(O)cc3oc12` [Compound 3, cudratricusxanthone L], the half-maximal inhibitory concentration (IC50) worked out at 3 ± 0.3 µM.
For `C=CC(C)(C)c1c(OC)cc2oc3cc(O)c(O)cc3c(=O)c2c1O` [Compound 2, 1,6,7-trihydroxy-2-(1,1-dimethyl-2-propenyl)-3-methoxyxanthone], the IC50 is 3 ± 0.6 µM.
As for `CC(C)=CCc1cc([C@@H]2CC(=O)c3c(cc(O)c(CC=C(C)C)c3O)O2)c(O)cc1O` [Compound 13, cudraflavanone D], the half-maximal inhibitory concentration (IC50) turned out to be 5.7 ± 1.5 µM.
For the compound `CC(C)=CCc1c(O)cc2oc(-c3ccc(O)cc3O)c(CC=C(C)C)c(=O)c2c1O` [Compound 15, cudraflavone C], the half-inhibitory concentration (IC50) stood at 9.4 ± 2.9 µM.
On the same count and under the same terms, as for `C=CC(C)(C)c1c(O)c(CC=C(C)C)c2oc3cc(O)c(O)cc3c(=O)c2c1O` [Compound 6, macluraxanthone B], the figure is 3.8 ± 0.5 µM.
